Series [1] deals with Mycoplasma gallisepticum. The experiment in a line: MIC, broth-dilution microtiter test, Mycoplasma gallisepticum. The series is classed as cell-based. The following applies: Mycoplasmoides gallisepticum. From the text: (§1) The MIC's in Table X were obtained using conventional broth-dilution microtiter tests.
Series [2] has as its system Haemophilus influenzae R252. The experiment in a line: MIC, standard agar-dilution assay, Haemophilus influenzae R252. The series is classed as cell-based. The following applies: Haemophilus influenzae, R252.
The subject of series [3] is Mycoplasma gallisepticum. The experiment in a line: Antimycoplasmal activity in chicks infected with Mycoplasma gallisepticum. In kind it is in vivo, two- to three-day-old chicks. Conditions: gavage five times, equivalent to 0.5 g/gal; for Number with Antibodies/Number Tested: antibodies to M. gallisepticum; for Number with Antibodies/Number Tested / Number with Air-Sac Lesions/Number Treated: 21 days post-infection. As for the experimental part:
In these tests infections were induced in chicks by injecting 0.2 ml of a broth culture of M. gallisepticum into the abdominal air sac of two- to three-day-old chicks. The compounds were administered by gavage five times at a dose equivalent to 0.5 g/gal (on the day of challenge once prior to and once following the challenge, two times on the next day and once on the third day). Twenty-one days post-infection, the chicks were weighed, a blood sample was taken, and the chicks were sacrificed. The presence or absence of air-sac lesions was recorded.

Another series concerns Mycoplasma hyorhinis. The experiment in a line: MIC, broth-dilution microtiter test, Mycoplasma hyorhinis. In kind it is cell-based. Conditions: Mycoplasma.
From the text: as §1

Series [4] deals with Pasteurella multocida 60A. The experiment in a line: MIC, broth-dilution microtiter test, Pasteurella multocida 60A. In kind it is cell-based. The following applies: Pasteurella multocida 60A; avian isolate; broth-dilution microtiter; read-out: MIC.
From the text: as §1

For the next series, the system named is Streptococcus bovis 80. The experiment in a line: MIC, broth-dilution microtiter test, Streptococcus bovis 80. In kind it is cell-based. The following applies: Streptococcus equinus.
From the text: as §1

Series [5] relates to Staphylococcus aureus V41. The experiment in a line: MIC, standard agar-dilution assay, Staphylococcus aureus V41. In kind it is cell-based. The following applies: Staphylococcus aureus, V41.
Series [6] concerns Streptococcus pyogenes C203. The experiment in a line: MIC, standard agar-dilution assay, Streptococcus pyogenes C203. In kind it is cell-based.
Series [7] has as its system Staphylococcus aureus S13E. The experiment in a line: MIC, standard agar-dilution assay, Staphylococcus aureus S13E. The series is classed as cell-based. The following applies: Staphylococcus aureus, S13E.
The subject of the next series is Staphylococcus aureus. The experiment in a line: MIC, broth-dilution microtiter test, Staphylococcus aureus. The series is classed as cell-based.
From the text: as §1

Series [8] relates to Pasteurella multocida 17E. The experiment in a line: MIC, broth-dilution microtiter test, Pasteurella multocida 17E. The series is classed as cell-based. The following applies: Pasteurella multocida 17E; bovine isolate; broth-dilution microtiter; read-out: MIC.
From the text: as §1

In series [9] the test system is Haemophilus influenzae Holt. The experiment in a line: MIC, standard agar-dilution assay, Haemophilus influenzae Holt. The series is classed as cell-based. The following applies: Haemophilus influenzae.
In series [10] the test system is Streptococcus pneumoniae Park I. The experiment in a line: microbe, parasite or virus in culture. Conditions: Streptococcus pneumoniae. The series is classed as cell-based.
For series [11], the system named is Streptococcus Group D X66. The experiment in a line: MIC, standard agar-dilution assay, Streptococcus Group D X66. In kind it is cell-based.
Series [12] has as its system Pasteurella multocida. The experiment in a line: Subcutaneous treatment of Pasteurella multocida-infected chicks. The series is classed as in vivo, one-day-old chicks. Conditions: 30 mg/kg × 2, 1 and 4 hours post-challenge. In outline: (§2)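 One-day-old chicks challenged subcutaneously with 0.1 ml of a 10^-4 dilution of a 20-hour tryptose broth culture of avian P. multocida. Compounds given by subcutaneous injection at 30 mg/kg 1 and 4 hours post-challenge, or by oral gavage 1 and 5 hours post-challenge.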

For series [13], the system named is Streptococcus pyogenes C203. The experiment in a line: In vivo protection of mice experimentally infected with S. pyogenes C203. The following applies: Streptococcus pyogenes, mice, doses given 1 and 4 hours post-infection. The protocol:
The C-20 modified derivatives of this invention have shown in vivo antimicrobial activity against experimentally-induced infections in laboratory animals. When two doses of test compound were administered to mice experimentally infected with S. pyogenes C203, the activity observed was measured as an ED50 value [effective dose in mg/kg to protect 50% of the test animals: see Warren Wick, et al., J. Bacteriol. 81, 233-235 (1961)].

Another series deals with Streptococcus Group 9960. The experiment in a line: MIC, standard agar-dilution assay, Streptococcus Group 9960. In kind it is cell-based. The following applies: GROUP9960.
The test system of series [14] is Staphylococcus aureus X400. The experiment in a line: MIC, standard agar-dilution assay, Staphylococcus aureus X400. The series is classed as cell-based. The following applies: Staphylococcus aureus, X400.
Series [15] has as its system Pasteurella hemolytica 22C. The experiment in a line: MIC, broth-dilution microtiter test, Pasteurella hemolytica 22C. The following applies: Pasteurella hemolytica 22C; broth-dilution microtiter; read-out: MIC. The series is classed as cell-based.
From the text: as §1

The subject of series [16] is Staphylococcus epidermidis EPI1. The experiment in a line: MIC, standard agar-dilution assay, Staphylococcus epidermidis EPI1. The series is classed as cell-based.
A further series has as its system Mycoplasma hyopneumoniae. The experiment in a line: MIC, broth-dilution microtiter test, Mycoplasma hyopneumoniae. In kind it is cell-based. The following applies: Mesomycoplasma hyopneumoniae; Mycoplasma hyopneumoniae; broth-dilution microtiter; read-out: MIC.
From the text: as §1

Series [17] has as its system Pasteurella multocida. The experiment in a line: Oral (gavage) treatment of Pasteurella multocida-infected chicks. In kind it is in vivo, one-day-old chicks. In outline:
as §2

Series [18] deals with Staphylococcus epidermidis EPI2. The experiment in a line: MIC, standard agar-dilution assay, Staphylococcus epidermidis EPI2. In kind it is cell-based. Conditions: Staphylococcus epidermidis EPI2; agar dilution; read-out: MIC. A general note: In agar dilution the substance is mixed into plates at graded concentrations.
For a further series, the system named is Mycoplasma synoviae. The experiment in a line: MIC, broth-dilution microtiter test, Mycoplasma synoviae. The series is classed as cell-based. Conditions: Mycoplasmopsis synoviae.
From the text: as §1

Series [19] deals with Staphylococcus aureus X1.1. The experiment in a line: MIC, standard agar-dilution assay, Staphylococcus aureus X1.1. In kind it is cell-based. The following applies: Staphylococcus aureus, X1.1.
The next series in a line: in vivo. Conditions: dog, po, 15 mg/kg.
Setting [20] is: C203, sc, subcutaneous, read-out: ED50, Subcutaneous.
Setting [21] is: C203, oral, read-out: ED50, Oral.

Molecules are shown by their SMILES. In brackets after ≈: the same amount, converted by molar mass. Several values for one entry are separate records, joined by “and”; a condition that tells them apart may be missing. Equal entries are not always repeated. Where two headings read alike, the source gives them in different places.

For `CCC1OC(=O)CC(O)C(C)C(OC2OC(C)C(O)C(N(C)C)C2O)C(CC2Nc3ccccc3S2)CC(C)C(=O)C=CC(C)=CC1COC1OC(C)C(O)C(OC)C1OC` (centres unmarked) [Compound 75], the MIC in the series with Mycoplasma gallisepticum [1] stood at 1.56 µg/mL (≈ 1.77 µM); in [2], 16 µg/mL (≈ 18.2 µM); against Mycoplasma hyorhinis, 50 µg/mL (≈ 56.9 µM); in [4] it was 25 µg/mL (≈ 28.4 µM); against Streptococcus bovis 80 (80) it was 3.12 µg/mL (≈ 3.55 µM); in series [5], 0.25 µg/mL (≈ 0.284 µM). The MIC in [6] (Streptococcus pyogenes, C203) was found to be 0.5 µg/mL (≈ 0.569 µM); in [7], 0.25 µg/mL (≈ 0.284 µM); in the series with Staphylococcus aureus it was 0.78 µg/mL (≈ 0.887 µM); in [8] it was 25 µg/mL (≈ 28.4 µM); in series [9], 16 µg/mL (≈ 18.2 µM); in [10], 0.25 µg/mL (≈ 0.284 µM). Also, the MIC in [11] is 2 µg/mL (≈ 2.27 µM); against Streptococcus Group 9960, 2 µg/mL (≈ 2.27 µM); in series [14], 0.5 µg/mL (≈ 0.569 µM); in [15], 25 µg/mL (≈ 28.4 µM); in [16] (Staphylococcus epidermidis, EPI1), 0.25 µg/mL (≈ 0.284 µM); in the series on Mycoplasma hyopneumoniae, 0.19 µg/mL (≈ 0.216 µM). In addition, the MIC in series [18] was 0.12 µg/mL (≈ 0.136 µM); against Mycoplasma synoviae it was 1.56 µg/mL (≈ 1.77 µM); in series [19] it was 0.25 µg/mL (≈ 0.284 µM). In the series on Mycoplasma gallisepticum [3], the “Number with Antibodies/Number Tested” value was 9/9. Moreover, the Mortality in the series on Mycoplasma gallisepticum [3] was 1/10. The “Number with Air-Sac Lesions/Number Treated” value with Mycoplasma gallisepticum [3] is recorded as 3/10. Moreover, the “Number of Deaths/Number Treated” value with Pasteurella multocida [12] is recorded as 4/10. For the same molecule, the ED50 (commonly the dose that gives a 50% effect, or the effect in half of the subjects) in series [13] (setting [20]) was 1.7 mg/kg; in [13] (setting [21]), 30 mg/kg. In addition, the “Number of Deaths/Number tested” value in the series with Pasteurella multocida [17] (1.0 g/gal equivalent) is 6/9; in the series with Pasteurella multocida [17] (2.0 g/gal equivalent), 3/9 and 4/10.
Take `CCC1OC(=O)CC(O)C(C)C(OC2OC(C)C(O)C(N(C)C)C2O)C(CC=O)CC(C)C(=O)C=CC(C)=CC1COC1OC(C)C(O)C(OC)C1OC` (centres unmarked) [desmycosin]: the peak concentration (Cmax) (usually the peak of the concentration-time curve) in “in vivo” amounted to 500 ng/mL.
In the case of `CCC1OC(=O)CC(O)C(C)C(OC2OC(C)C(O)C(N(C)C)C2O)C(CCSc2nnnn2C)CC(C)C(=O)C=CC(C)=CC1COC1OC(C)C(O)C(OC)C1OC` (centres unmarked) [Compound 24, 20-DH-DO-20-[(1-N-Methyltetrazol-5-yl)thio]desmycosin], the MIC in the series on Mycoplasma gallisepticum [1] (Mycoplasma gallisepticum, broth-dilution microtiter, read-out: MIC) is 1.56 µg/mL (≈ 1.79 µM); in the series with Mycoplasma hyorhinis it was 50 µg/mL (≈ 57.3 µM); in series [4] it was 12.5 µg/mL (≈ 14.3 µM); in the series with Streptococcus bovis 80 (Streptococcus bovis 80, broth-dilution microtiter, read-out: MIC), 12.5 µg/mL (≈ 14.3 µM); in [5], 0.5 µg/mL (≈ 0.573 µM); in series [6] (Streptococcus pyogenes C203, agar dilution, read-out: MIC), 0.25 µg/mL (≈ 0.287 µM). For the same molecule, the MIC was 0.5 µg/mL (≈ 0.573 µM) in series [7]; 0.78 µg/mL (≈ 0.894 µM) in the series with Staphylococcus aureus (broth-dilution microtiter, read-out: MIC); 12.5 µg/mL (≈ 14.3 µM) in [8]; 2 µg/mL (≈ 2.29 µM) in [10]; 16 µg/mL (≈ 18.3 µM) in series [11] (Streptococcus Group D X66, agar dilution, read-out: MIC); 32 µg/mL (≈ 36.7 µM) in the series with Streptococcus Group 9960 (Streptococcus Group 9960, agar dilution, read-out: MIC). The MIC in series [14] is 1 µg/mL (≈ 1.15 µM); in series [15], 12.5 µg/mL (≈ 14.3 µM); in [16] (Staphylococcus epidermidis EPI1, agar dilution, read-out: MIC) it was 0.25 µg/mL (≈ 0.287 µM); with Mycoplasma hyopneumoniae it was 12.5 µg/mL (≈ 14.3 µM); in the series with Mycoplasma synoviae (Mycoplasma synoviae, broth-dilution microtiter, read-out: MIC) it was 0.78 µg/mL (≈ 0.894 µM); in [19] it was 0.5 µg/mL (≈ 0.573 µM). Also, in the series with Mycoplasma gallisepticum [3], the “Number with Antibodies/Number Tested” value was 10/10. In addition, the Mortality in the series on Mycoplasma gallisepticum [3] is 0/10. Besides, in the series on Mycoplasma gallisepticum [3], the “Number with Air-Sac Lesions/Number Treated” value is given as 6/10. Further, the “Number of Deaths/Number Treated” value in the series with Pasteurella multocida [12] was 2/10 and 0/10. Also, the ED50 in [13] (setting [20]) stood at 2.4 mg/kg; in series [13] (setting [21]), 50 mg/kg. The “Number of Deaths/Number tested” value in the series on Pasteurella multocida [17] (1.0 g/gal equivalent) is 2/9; with Pasteurella multocida [17] (2.0 g/gal equivalent), 1/9.

Source of the values: patent publication US4443436A, “C-20-Modified macrolide derivatives of the macrolide antibiotics tylosin, desmycosin, macrocin, and lactenocin” (Eli Lilly and Company, priority 1982, dated 1984).
